Reference: article PMC12502564, “Evaluation of LLM-generated peptide as foundation template for discovery of effective encrypted AMPs against clinical superbugs” (Microbiology Spectrum, 2025)
Read-outs that look alike come from different tables or passages of the source. No end group written: not given here.

How the values were obtained:
MRSA = experiment: Time-kill curve; assay type: cell-based, methicillin-resistant Staphylococcus aureus; settings: ~10^5 CFU mL^−1 in MH broth
Experimental: (§1) Bacteria in the logarithmic growth phase were diluted to approximately 10^5 CFU mL^−1 in MH broth and treated with peptides, polymyxin B, or vancomycin at final concentrations of 1/2 × MIC, 1 × MIC, 2 × MIC, and 4 × MIC. After the addition of the test compound, samples were taken at 0, 3, 6, 9, 12, and 24 h and serially diluted. Subsequently, 5 µL of the diluted samples were spread on agar plates and incubated at 37°C for 20 h. The bacterial concentration CFU mL^−1 at the corresponding time point of each sample was calculated based on the number of colonies on the agar plate, and the log10 (CFU mL^−1) was plotted against time (h).

MRSA 2210187 = assay type: cell-based, methicillin-resistant Staphylococcus aureus
Experimental: (§2) The MIC of all peptides was determined using the microdilution broth method in a 96-well plate. Peptides were dissolved in the DMSO with an initial concentration of 12,800 µg mL^−1. And cells of eight strains were separately suspended in the MHB at a density of approximately 10^5 CFU mL^−1. In the first column of the 96-well plate, 16 µL of peptide and 184 µL of MHB were added to each well to achieve a final concentration of 1,024 µg mL^−1. One-hundred microliters of MHB was added to each of the remaining wells. Then the first column of liquid was mixed well and diluted to the 12th column using the twofold dilution method. One-hundred microliters of prepared bacterial solution was added to all wells, and the 96-well plate was incubated at 37°C for 18–24 h. The MIC was defined as the concentration of the peptide in the well just preceding the first well showing visible turbidity. All experiments were performed in triplicate to ensure reliability.

CRAB 2210186 [1] = assay type: cell-based, carbapenem-resistant Acinetobacter baumannii
Experimental: as §2

E. coli ATCC25922 = assay type: cell-based, Escherichia coli
Experimental: as §2

CRPA 2403282 = assay type: cell-based, carbapenem-resistant P. aeruginosa
Experimental: as §2

CRKP 2403276 = assay type: cell-based, carbapenem-resistant K. pneumoniae
Experimental: as §2

S. aureus ATCC25923 = assay type: cell-based, Staphylococcus aureus
Experimental: as §2

A. baumannii ATCC19606 = assay type: cell-based, Acinetobacter baumannii
Experimental: as §2

[2] = system: all eight bacterial strains; assay type: cell-based, gram-positive and gram-negative bacteria
Experimental: as §2

[3] = set-up: method as in earlier work; settings: cited from earlier work
CRAB [4] = system: CRAB; set-up: method as in earlier work; settings: in vitro; cited from earlier work
Excerpt: Using this validated AMP as a template, we performed sequence alignment with the National Center for Biotechnology Information (NCBI) database to identify encrypted AMPs.

CRAB 2210186 [5] = experiment: Thigh infection mouse model; assay type: in vivo, BALB/c mice; settings: neutropenic mice, ~1 × 10^6 CFU in thigh, i.p. at 1, 3, 5, 7 h post-infection (PL-15 10 × MIC, 100 µL; polymyxin B 20,000–25,000 U kg^−1 day^−1), n = 8
Excerpt: The WHO has classified CRAB as a “Critical Priority” pathogen in its Priority Pathogens List, recognizing it as a predominant causative agent of hospital-acquired infections ([2]). This classification reflects CRAB’s global dissemination, high mortality rates, and extreme resistance profiles. Given this critical situation, a thigh infection model was employed to evaluate the in vivo therapeutic efficacy of PL-15 against CRAB. To establish the mouse thigh infection model, mice were pre-treated intraperitoneally with cyclophosphamide 4 days and 1 day prior to bacterial inoculation to induce neutropenia, administered at doses of 150 mg kg^−1 and 100 mg kg^−1, respectively ([51]). Each mouse was then injected with approximately 10^6 colony-forming unit (CFU) of CRAB in the thigh tissue, followed by four intraperitoneal injections of PL-15, polymyxin B, or phosphate-buffered saline (PBS) within 24 h of infection (Fig. 3a).
All animal experiments were performed according to the “Principles of Laboratory Animal Care” (NIH publication No. 86-23, revised 1985) and approved by the Animal Care and Use Committee of Shandong University (LL20240622, Jinan, China). Five-week-old male BALB/c mice were purchased from Beijing Vital River Laboratory Animal Technology Co., Ltd. (Beijing, China) and kept under a 12-hour light/12-hour dark cycle, humidity of 50%, and temperature of 22°C in standard specific pathogen-free individually vented cages.
To establish the mouse thigh infection model, mice were injected intraperitoneally with cyclophosphamide 4 d and 1 d before bacterial administration, at concentrations of 150 and 100 mg kg^−1, respectively, to induce neutropenia ([51]). CRAB 2210186 cells were suspended in sterile PBS, adjusted to a concentration of ~1 × 10^6 CFU per infection site and injected into the right thighs of eight mice per treatment group. PL-15 (10 × MIC, 100 µL), polymyxin B (20,000–25,000 U kg^−1 day^−1) or PBS were administered intraperitoneally at 1, 3, 5, and 7 h post-infection. Mice were euthanized 24 h after infection, and the thigh tissues were aseptically collected, weighed, homogenized, serially diluted in PBS, and plated onto solid MCA. The CFU of CRAB 2210186 per thigh was calculated by plating dilutions of the thigh homogenates (0.25 g of thigh tissue in 10 mL sterile PBS) on agar plates and counting colonies.

CRAB [6] = experiment: Drug resistance assay, 20 passages; assay type: cell-based, carbapenem-resistant Acinetobacter baumannii; settings: 20 passages at 0.5-fold MIC, n = 3
Experimental: Resistance development assays were performed following previous report ([43]). CRAB was cultured overnight at 37°C at 160 rpm in LB. In wells of a 96-well polypropylene flat-bottom plate, 5 µL of the overnight bacterial culture (10^7 CFU mL^−1) was added to 100 µL of peptides/antibiotic solutions (with final concentrations of 0.25 to 512 µg mL^−1) in MHB. Plates were incubated for 18 to 20 h at 37°C. The MIC, the lowest concentration of peptides/antibiotic that caused lack of visible bacterial growth, was determined for each bacterial species. Thereafter, 5 µL of the growth at the 0.5-fold MIC suspension (10^7 CFU mL^−1) was added to a fresh medium containing peptides/antibiotic, and these mixtures were incubated as described above. This was repeated for 20 passages. All experiments were performed in triplicate to ensure reliability.

CRAB [7] = experiment: Biofilm formation inhibition assay (crystal violet); assay type: cell-based, carbapenem-resistant Acinetobacter baumannii; settings: 1/2 × MIC, 24 h, OD570
Experimental: The crystal violet staining method ([66]) was used to determine the inhibitory activity of the compounds against the biofilm formation of CRAB. The steps were as follows: prepare a bacterial solution (10^6 CFU mL^−1), mix it with different final concentrations of the compound (1/2 × MIC, 1 × MIC, 2 × MIC, and 4 × MIC), and culture it for 24 h. After discarding the supernatant, wash with PBS, add anhydrous methanol to fix the biofilm, and then stain it with crystal violet for 60 min after drying. After washing, dissolve the biofilm with 33% glacial acetic acid, and measure OD570. Three parallel experiments were performed, and the biofilm formation inhibition rate was calculated by the following formula:
(3) Biofilm formation inhibition rate (%)=(1−OD(sample)− OD(blank)/OD(negative)− OD(blank))×100%

CRAB [8] = experiment: Time-kill curve; assay type: cell-based, carbapenem-resistant Acinetobacter baumannii; settings: ~10^5 CFU mL^−1 in MH broth
Experimental: as §1

CRAB [9] = experiment: PI assay, cytoplasmic membrane integrity; assay type: cell-based, carbapenem-resistant Acinetobacter baumannii; settings: 10 × MIC, 10^8 CFU mL^−1
Experimental: PI (which is known to stain nuclear chromatin upon cell membrane disruption) assay was carried out to evaluate the ability of AMPs to disrupt the cytoplasmic membrane integrity ([63]). After CRAB was grown to the exponential phase, bacteria cells were harvested and washed three times in washing buffer of 5 mM glucose and 5 mM HEPES (1:1, pH = 7.2) and then re-adjusted to 10^8 CFU mL^−1 in the same buffer. Bacterial suspensions (150 µL/well) were loaded into black-walled, clear-bottom 96-well plates with lids. Following bacterial loading, 50 µL of 10 µM PI was introduced into each well, with 30 min pre-incubation CRAB. Post-incubation fluorescence signals were acquired using 535 nm excitation and 617 nm emission wavelengths. Compounds (10 µL) were then administered to achieve 1 × MIC/10 × MIC-equivalent final concentrations in the dye-loaded bacterial suspensions. Real-time fluorescence monitoring was performed with continuous acquisition during the first 10 min, followed by measurements at 10-min intervals. Negative controls received 10 µL sterile water in lieu of antimicrobial peptides while maintaining equivalent pre-incubation conditions. All experimental conditions were executed with three biological replicates.

[10] = MHB, ~10^5 CFU mL^−1, 37°C, 18–24 h, triplicate

For `CN[C@H](CC(C)C)C(=O)N[C@H]1C(=O)N[C@@H](CC(N)=O)C(=O)N[C@H]2C(=O)N[C@H]3C(=O)N[C@H](C(=O)N[C@H](C(=O)O)c4cc(O)cc(O)c4-c4cc3ccc4O)[C@H](O)c3ccc(c(Cl)c3)Oc3cc2cc(c3O[C@@H]2O[C@H](CO)[C@@H](O)[C@H](O)[C@H]2O[C@H]2C[C@](C)(N)[C@H](O)[C@H](C)O2)Oc2ccc(cc2Cl)[C@H]1O` [vancomycin, reference compound], the “time to complete bacterial eradication of MRSA” value (MRSA; 1 × MIC) was ≤ 6 h, the “time to full bacterial killing of MRSA” value (MRSA; 2 × MIC) was ≤ 3 h and the “time to full bacterial killing of MRSA” value (MRSA; 4 × MIC) was ≤ 3 h.
For GIGKFLKKAKKFGKAFVKILKK-NH2 [pexiganan], the MIC (MRSA 2210187; [10]) was “below 8 µg mL^−1” and the MIC (CRAB 2210186 [1]) was “below 8 µg mL^−1”.
For GIWKTIKSMGKVFAGKILQNL-NH2 [[D4K]B2RP], the MIC (MRSA 2210187; 2210187) was “below 8 µg mL^−1” and the MIC (CRAB 2210186 [1]) was “below 8 µg mL^−1”.
With GLGSLLGKAFKIGLKTVGKMMGGAPREQ [CPF-B1] the MIC (MRSA 2210187; [10]) was “below 8 µg mL^−1” and the MIC (CRAB 2210186 [1]; [10]) was “below 8 µg mL^−1”.
With GLLKPLLKIAAKVGSNLL-NH2 [[G4K]XT-7] the MIC (MRSA 2210187; 2210187) was “below 8 µg mL^−1” and the MIC (CRAB 2210186 [1]) was “below 8 µg mL^−1”.
For GVIKSVLKGVAKTVALGML-NH2 [B2RP-Era], the MIC (MRSA 2210187; 2210187) was “below 8 µg mL^−1” and the MIC (CRAB 2210186 [1]) was “below 8 µg mL^−1”.
For “ILGKLLKTAAKLLSNL [[S7K,G11K]alyteserin-2a]”, the MIC (MRSA 2210187; 2210187) was “below 8 µg mL^−1” and the MIC (CRAB 2210186 [1]; [10]) was “below 8 µg mL^−1”.
For “LKLSPKTKDTLKKVLKGAIKGAIAIASMA-NH2 [hymenochirin-1Pa]”, the MIC (MRSA 2210187; 2210187) was “below 8 µg mL^−1” and the MIC (CRAB 2210186 [1]) was “below 8 µg mL^−1”.
With WLKKILAWLKKKW [BR-13] the MIC (E. coli ATCC25922) was “lower than 11 µg mL^−1”, the MIC (CRPA 2403282) was 64 µg/mL and the MIC (MRSA 2210187; 2210187) was 3.33 µg/mL. The MIC (CRKP 2403276) was “lower than 11 µg mL^−1”, the MIC (S. aureus ATCC25923) was “lower than 11 µg mL^−1” and the MIC (A. baumannii ATCC19606) was “lower than 11 µg mL^−1”. The MIC (CRAB 2210186 [1]) was 18.67 µg/mL, the “MIC for all tested bacteria” value [2] was ≤ 64 µg/mL and the antimicrobial spectrum ([2]; judged from MICs on eight strains) was “broad-spectrum antimicrobial properties”.
For “WLKKILKWLKW [g_AMP41, short peptide … generated by AMPGenix, used as template]”, the “efficacy in treating infections in vivo” value [3] is given as “suboptimal efficacy” and the MIC (CRAB [4]) is given as 8 µg/mL.
With polymyxin B [reference compound] the “reduction of bacterial load compared to the PBS control group” value (CRAB 2210186 [5]; 24 h) was “two orders of magnitude”, the “bacteria eradicated in the thigh tissue within 24 h” value (CRAB 2210186 [5]) was “over 97%” and the “MIC change after serial passaging” value (CRAB [6]) was 64 fold. The biofilm formation inhibition (CRAB [7]) was “moderate biofilm inhibition”, the “time to complete bacterial eradication of CRAB” value (CRAB [8]; 2 × MIC) was 6 h and the “time to kill CRAB” value (CRAB [8]; 4 × MIC) was ≤ 3 h. The “PI fluorescence (cytoplasmic membrane integrity)” value (CRAB [9]) was “strongest fluorescence response”.
